The values below come from patent US20250206761A1, “HALOINDOLE MACROCYCLIC COMPOUNDS FOR THE TREATMENT OF CANCER” (Hoffmann-La Roche Inc., priority 2022, published 2025).

SMILES strings stand for the structures. Where only a bound is given, the exact number is not on record here.

The test system of data set [1] is cryopreserved suspension hepatocytes from human. Nature of the data set: Human hepatocyte stability assay. The class given is in vitro ADME. Particulars: for Clearance Category: human hepatocytes; for CL_hep (Human): human hepatocytes 1×10^6 cells/mL, 37° C. Here is the method: The hepatocyte stability assay measures the rate of disappearance of a compound from incubations with cryopreserved suspension hepatocytes from human. Positive controls, including Midazolam, Raloxifene and Dextromethorphan, are included in every experiment. Incubations consist of […] tested compound and suspension of human hepatocytes (1×10^6 cells/mL) in supplemented Williams' E Medium with 10% FBS and 0.5% Penicillin-streptomycin. The hepatocyte suspension was incubated with intermittent shaking 900 rpm at 37° C., in a 5% CO2 incubator. The reaction was stopped by adding methanol containing internal standard (2 μM Tolbutamide) at 2, 10, 20, 40, 60 and 120 minutes after compound addition, depletion of the parent compound was monitored by LC-MS/MS analysis.

The subject of data set [2] is NCI-H358 (ATCC-CRL5807) cells. Nature of the data set: Cell viability assay, G12C (NCI-H358). The data set is classed as cell-based, human. The following applies: Homo sapiens; KRAS cell viability, NCI-H358, 72 hrs, Cell Counting Kit-8. The essentials: (§1)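 Read-out is CCK-8 absorbance (OD450 minus OD650, 2 hrs after reagent), reflecting NADPH after 72 hrs of compound exposure in 0.5% DMSO. Seeding density was 5,000 cells/well for NCI-H358 and 2,000 for AGS and SW620. IC50 derived by 4-parameter sigmoidal fitting.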

The subject of data set [3] is AGS (ATCC-CRL-1739) cells. Nature of the data set: Cell viability assay, G12D (AGS). The class given is cell-based, human. The following applies: Homo sapiens, KRAS cell viability, 72 hrs, Cell Counting Kit-8. The essentials: as §1
For data set [4], the system named is SW620 (ATCC-CCL-227). In words: Cell viability assay, G12V (SW620). The data set is classed as cell-based, human. The following applies: Homo sapiens, SW-620; KRAS cell viability, SW620, 72 hrs, Cell Counting Kit-8. The essentials: as §1
The target in data set [5] is T1, KRAS G12C-BRAF complex (Homo sapiens (Human), UniProt P01116+P62937, G12C). Nature of the data set: KRAS-BRAF with CYPA (500 nM) interaction assay (TR-FRET), G12C. The data set is classed as biochemical.
Data set [6] concerns the target KRAS G12D binding to BRAF (Homo sapiens (Human), UniProt P01116+P62937, G12D). Nature of the data set: KRAS-BRAF with CYPA (500 nM) interaction assay (TR-FRET), G12D. The data set is classed as biochemical.
Data set [7] has as its target KRAS G12V binding to BRAF (Homo sapiens (Human), UniProt P01116+P62937, G12V). Nature of the data set: KRAS-BRAF with CYPA (500 nM) interaction assay (TR-FRET), G12V. The class given is biochemical. The essentials:
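A TR-FRET assay measured how compound, in the presence of CYPA, disrupts binding of GMPPNP-loaded 6His-KRAS G12V to BRAF. The buffer contained 25 mM HEPES PH=7.4, 0.002% Tween20, 0.1% BSA, 100 mM NaCl, 5 mM MgCl2 and 10 μM GMPPNP. Compounds ran as a 16-point 3-fold dilution series from 10 μM for 3 hours.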

Data set [8] relates to phosphorylation of ERK, KRAS G12C in NCJ-H358 cells. In words: pERK inhibition assay, KRAS G12C. The class given is cell-based, human. The following applies: Homo sapiens, 4 hours. The essentials:
(§2)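 In-cell ELISA of phospho-ERK (HRP/TMB, OD450) after formaldehyde fixation and methanol permeabilization; IC50 by 4-parameter sigmoidal fit. Compound incubation 4 h, 0.5% DMSO final, on overnight-attached NCJ-H358, AGS or SW620 cells seeded at 30,000, 20,000 and 30,000 per well.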

Data set [9] deals with phosphorylation of ERK, KRAS G12D in AGS cells. Nature of the data set: pERK inhibition assay, KRAS G12D. The class given is cell-based, human. The following applies: Homo sapiens, 4 hours. The essentials:
as §2

In data set [10] the test system is phosphorylation of ERK, KRAS G12V in SW620. Nature of the data set: pERK inhibition assay, KRAS G12V. The class given is cell-based, human. The following applies: Homo sapiens, SW-620, SW620, 4 hours. The essentials: as §2
Data set [11] deals with T1, KRAS G12C-BRAF complex. Nature of the data set: KRAS G12C-BRAF NanoBit assay. The class given is cell-based. Particulars: HEK293 cells, 3 hours of incubation. The protocol:
This assay is to measure the ability of tested compounds in disruption of the KRAS G12C-BRAF complex at the cellular level, we established the NanoBit cellular assay in mammalian HEK293 (ATCC) cells.
HEK293 cells were grown and maintained using DMEM medium (Thermo Fisher Scientific) with 10% fetal bovine serum and 1% penicillin/streptomycin. Both KRAS G12C and BRAF RBD were cloned into the NanoBit vectors ([…] vectors system, Promega) with the orientations SnmBit-KRAS G12C and BRAF RBD-LgBit, respectively, and co-transfected into HEK293 cells. Cells were then selected with 100 μg/mL Hygromycin B (10687010, Thermo Fisher) and Blasticidin (5 μg/mL) for 4 weeks to get the stable cell pool.
On the day of the assay, 75 nL of compound solution was presented in a 384-well assay plate as a 16-point 3-fold dilution starting from a final concentration of 30 μM in DMSO. Then cells were seeded at 10,000 cells/25 μL/well in a 384-well plate. After 3 hours of incubation, 6 μL of volume of Nano-Glo® Live Cell Substrate (Promega) was added into each well. Monitor luminescence using ultra384 model in Envision at 20 minutes. Compounds that facilitate disruption of the KRAS G12C-BRAF RBD complex were identified as those eliciting a decrease of luminescence relative to DMSO control wells.

T1 sequence (P01116-2 other isoform, or with tags, fused parts or gaps G12C): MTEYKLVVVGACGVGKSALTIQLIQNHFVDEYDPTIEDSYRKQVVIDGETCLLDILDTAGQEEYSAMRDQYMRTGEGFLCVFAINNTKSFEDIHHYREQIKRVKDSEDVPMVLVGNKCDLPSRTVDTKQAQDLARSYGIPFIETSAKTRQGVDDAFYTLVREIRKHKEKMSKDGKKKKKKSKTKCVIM
T1 sequence (P62937 whole entry): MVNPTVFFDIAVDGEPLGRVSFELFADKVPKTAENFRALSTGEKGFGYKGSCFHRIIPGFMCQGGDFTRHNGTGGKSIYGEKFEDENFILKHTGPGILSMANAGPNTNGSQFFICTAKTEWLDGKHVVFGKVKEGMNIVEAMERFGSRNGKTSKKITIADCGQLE
Chain of KRAS G12V binding to BRAF (P01116-2 other isoform, or with tags, fused parts or gaps G12V): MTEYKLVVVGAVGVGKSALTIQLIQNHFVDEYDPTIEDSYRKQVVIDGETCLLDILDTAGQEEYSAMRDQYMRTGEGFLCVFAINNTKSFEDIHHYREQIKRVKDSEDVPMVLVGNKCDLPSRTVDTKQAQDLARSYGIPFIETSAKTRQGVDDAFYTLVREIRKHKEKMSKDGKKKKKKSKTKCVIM
Chain of KRAS G12V binding to BRAF (P62937 whole entry): as the sequence (P62937 whole entry) above
Chain of KRAS G12D binding to BRAF (P01116-2 other isoform, or with tags, fused parts or gaps G12D): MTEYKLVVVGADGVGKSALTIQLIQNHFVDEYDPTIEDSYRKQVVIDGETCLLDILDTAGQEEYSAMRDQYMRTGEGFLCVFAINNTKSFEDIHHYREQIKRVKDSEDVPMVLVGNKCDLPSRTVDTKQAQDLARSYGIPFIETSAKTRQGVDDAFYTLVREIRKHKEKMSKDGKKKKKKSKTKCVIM
Chain of KRAS G12D binding to BRAF (P62937 whole entry): as the sequence (P62937 whole entry) above

With `CO[C@@H](C)c1ncc(N2CCN(C)CC2)cc1-c1c2c3cc(c(F)cc3n1CC(F)(F)F)-c1csc(n1)C[C@H](NC(=O)[C@H](C(C)C)N1CC[C@@]3(CCN(C(=O)[C@H](F)Cl)C3)C1=O)C(=O)N1CCC[C@H](N1)C(=O)OCC(C)(C)C2` (atropisomer, axis not shown; (M)) [Example 4, (2S)-2-[(5R)-7-[(2R)-2-chloro-2-fluoro-acetyl]-1-oxo-2,7-diazaspiro[4.4]nonan-2-yl]-N-[(7S,13S)-24-fluoro-(20M)-20-[2-[(1S)-1-methoxyethyl]-5-(4-methylpiperazin-1-yl)-3-pyridyl]-17,17-dimethyl-8,14-dioxo-21-(2,2,2-trifluoroethyl)-15-oxa-4-thia-9,21,27,28-tetrazapentacyclo[17.5.2.1^2,5.1^9,13.0^22,26]octacosa-1(25),2,5(28),19,22(26),23-hexaen-7-yl]-3-methyl-butanamide], the “Clearance Category” value in [1] is on record as “low (CL_hep (mL/min/kg)<6.96 is low clearance)”. Further, the “CL_hep (Human)” value in [1] came to 0.384 L/h/kg. Also, the IC50 is 0.002 µM in [2]; 1.28 µM in [3]; 0.635 µM in data set [4]; 0.122 µM in data set [5]; 4.37 µM in [6]; more than 10 µM in [7]. The IC50 in data set [8] came to 0.002 µM; in data set [9] it was 0.11 µM; in data set [10], 0.048 µM.

For `CO[C@@H](C)c1ncc(N2CCN(C)CC2)cc1-c1c2c3cc(c(F)cc3n1CC(F)(F)F)-c1csc(n1)C[C@H](NC(=O)[C@H](C(C)C)N1CC[C@]3(CCN(C(=O)[C@H](F)Cl)C3)C1=O)C(=O)N1CCC[C@H](N1)C(=O)OCC(C)(C)C2` (atropisomer, axis not shown; (M)) [Example 5, (2S)-2-[(5S)-7-[(2R)-2-chloro-2-fluoro-acetyl]-1-oxo-2,7-diazaspiro[4.4]nonan-2-yl]-N-[(7S,13S)-24-fluoro-(20M)-20-[2-[(1S)-1-methoxyethyl]-5-(4-methylpiperazin-1-yl)-3-pyridyl]-17,17-dimethyl-8,14-dioxo-21-(2,2,2-trifluoroethyl)-15-oxa-4-thia-9,21,27,28-tetrazapentacyclo[17.5.2.1^2,5.1^9,13.0^22,26]octacosa-1(25),2,5(28),19,22(26),23-hexaen-7-yl]-3-methyl-butanamide], in [1], the “Clearance Category” value is listed as “medium (16.24>CL_hep (mL/min/kg)>6.96 is medium clearance)”. Besides, the “CL_hep (Human)” value in data set [1] was found to be 0.75 L/h/kg. Further, the half-maximal inhibitory concentration (IC50) amounted to 0.002 µM in data set [2]; 2.24 µM in data set [3]; 0.042 µM in data set [4]; 0.002 µM in data set [8]; 0.048 µM in data set [9]; 0.026 µM in data set [10].

Regarding `CO[C@@H](C)c1ncc(N2CCN(C)CC2)cc1-c1c2c3cc(c(F)cc3n1CC(F)(F)F)-c1csc(n1)C[C@H](NC(=O)[C@H](C(C)C)N1CCCC3(CCN(C(=O)[C@H](F)Cl)CC3)C1=O)C(=O)N1CCC[C@H](N1)C(=O)OCC(C)(C)C2` (atropisomer, axis not shown; (M)) [Example 6, (2S)-2-[9-[(2R)-2-chloro-2-fluoro-acetyl]-1-oxo-2,9-diazaspiro[5.5]undecan-2-yl]-N-[(7S,13S)-24-fluoro-(20M)-20-[2-[(1S)-1-methoxyethyl]-5-(4-methylpiperazin-1-yl)-3-pyridyl]-17,17-dimethyl-8,14-dioxo-21-(2,2,2-trifluoroethyl)-15-oxa-4-thia-9,21,27,28-tetrazapentacyclo[17.5.2.1^2,5.1^9,13.0^22,26]octacosa-1(25),2,5(28),19,22(26),23-hexaen-7-yl]-3-methyl-butanamide], the “Clearance Category” value in data set [1] is “medium (16.24>CL_hep (mL/min/kg)>6.96 is medium clearance)”. Further, the “CL_hep (Human)” value in data set [1] is 0.804 L/h/kg. In addition, the IC50 in [2] was determined as 0.001 µM; in data set [3], 0.076 µM; in data set [4], 0.021 µM; in data set [8], 0.001 µM; in data set [9] it was 0.021 µM; in [10] it was 0.024 µM.

As to `CO[C@@H](C)c1ncc(N2CCOCC2)cc1-c1c2c3cc(c(F)cc3n1CC(F)(F)F)-c1csc(n1)C[C@H](NC(=O)[C@H](C(C)C)N1CC[C@]3(CCN(C(=O)[C@H](F)Cl)C3)C1=O)C(=O)N1CCC[C@H](N1)C(=O)OCC(C)(C)C2` (atropisomer, axis not shown; (M)) [Example 57, (2S)-2-[(5S)-7-[(2R)-2-chloro-2-fluoro-acetyl]-1-oxo-2,7-diazaspiro[4.4]nonan-2-yl]-N-[(7S,13S)-24-fluoro-(20M)-20-[2-[(1S)-1-methoxyethyl]-5-morpholino-3-pyridyl]-17,17-dimethyl-8,14-dioxo-21-(2,2,2-trifluoroethyl)-15-oxa-4-thia-9,21,27,28-tetrazapentacyclo[17.5.2.1^2,5.1^9,13.0^22,26]octacosa-1(25),2,5(28),19,22(26),23-hexaen-7-yl]-3-methyl-butanamide], the IC50 in data set [2] is 0.003 µM; in data set [3], 1.3 µM; in data set [4], 0.059 µM; in data set [11], 0.023 µM; in data set [8] it was 0.006 µM; in [9] it was 0.057 µM. Half-maximal inhibition in data set [10] (IC50) required 0.033 µM.

On to `CO[C@@H](C)c1ncc(N2CCOCC2)cc1-c1c2c3cc(c(F)cc3n1CC(F)(F)F)-c1csc(n1)C[C@H](NC(=O)[C@H](C(C)C)N1CCC3(CN(C(=O)[C@H](F)Cl)C3)C1=O)C(=O)N1CCC[C@H](N1)C(=O)OCC(C)(C)C2` (atropisomer, axis not shown; (M)) [Example 58, (2S)-2-[2-[(2R)-2-chloro-2-fluoro-acetyl]-5-oxo-2,6-diazaspiro[3.4]octan-6-yl]-N-[(7S,13S)-24-fluoro-(20M)-20-[2-[(1S)-1-methoxyethyl]-5-morpholino-3-pyridyl]-17,17-dimethyl-8,14-dioxo-21-(2,2,2-trifluoroethyl)-15-oxa-4-thia-9,21,27,28-tetrazapentacyclo[17.5.2.1^2,5.1^9,13.0^22,26]octacosa-1(25),2,5(28),19,22(26),23-hexaen-7-yl]-3-methyl-butanamide], for which the IC50 was determined as 0.005 µM in data set [2]; 1.5 µM in [3]; 0.13 µM in [4]; 0.054 µM in [11]; 0.012 µM in data set [8]; 0.124 µM in data set [9]. In data set [10], this molecule returned an IC50 of 0.041 µM.
